Laboratory results taken from US7759101B2, “Ginsenoside glycosidases hydrolyzing ginsenoside sugar moieties and uses thereof” (priority 2000, dated 2010).

Legend:
[1] = test system: ginsenoside glycosidases from A. niger; assay: Hydrolysis of ginsenosides with crude ginsenoside glycosidases from A. niger, products measured by TLC; type: biochemical, Aspergillus niger; settings: pH 5, 30° C., 18 hours
Description: Aspergillus niger FFCCDL-48 g was cultured in a medium containing 1% ginseng extracts and 3% wheat bran extracts at 30° C. for 54 hours. Cells were removed by centrifugation, after which (NH4)2SO4 powder was added to 2000 ml of the cell-free supernatant with stirring to 65% saturation. The solution was stored overnight at 4° C. and precipitated proteins were collected by centrifugation, resuspended in 80 ml of distilled water and dialyzed against 0.01M acetate buffer pH 5. Insolubles were removed by centrifugation, and the solution was adjusted to 200 ml with 0.01 M acetate buffer pH 5. The crude enzyme solution may be used to hydrolyze ginsenosides or to purify the enzymes.
100 mg each of ginsenosides Rb1, Rb2, Rc and Rd and 10 mg of ginsenoside Rg3 were dissolved in separate tubes containing 10 ml of 0.01M acetate buffer pH 5. 10 ml of the crude enzyme solution obtained in 1.1 was added to each tube and allowed to react at 30° C. for 18 hours. Then 10 ml of n-butanol was added to stop the reactions. The products were measured by thin layer chromatography (TLC) (Silica gel 60-F254, Merck; chloroform:methanol:water 70:30:5).
Experiments were carried out to explore the effects of temperature, pH, metal ions and reaction time on the enzyme reaction, in order to further characterize the enzymes.
100 mg of ginsenoside Rb1 was used in a reaction under the conditions as described in 1.2 and the effect of temperature was shown in Table 2.

[2] = test system: ginsenoside glycosidases from Streptomyces; assay: Hydrolysis of Rd with ginsenoside glycosidases from Streptomyces; type: biochemical, Streptomyces sp. FFCCDL-2 g; settings: 1% Rd in acetate buffer containing 20% ethanol, 50° C., 20 hours
Description: Streptomyces sp. FFCCDL-2 g (available from Food Fermentation Culture Collection of Dalian Institute of Light Industry) was cultured at 30° C. for 48 hours in a medium containing 1% by weight of ginseng extracts and 3% by weight of wheat bran extracts. Cells were removed by centrifugation, after which (NH4)2SO4 powder was added to 300 ml of the cell-free supernatant to 70% saturation to precipitate the enzymes. The solution was stored at 4° C. overnight and centrifuged to collect the pellets. The pellets were resuspended and the suspension was dialyzed against 0.01M acetate buffer pH 5. Impurities were removed by centrifugation, and 15 ml of crude enzyme solution was obtained.
10 ml of the enzyme solution was allowed to react with 10 ml of 1% Rd in acetate buffer containing 20% ethanol at 50° C. for 20 hours.

## CC(C)=CCC[C@](C)(O[C@@H]1O[C@H](CO)[C@@H](O)[C@H](O)[C@H]1O)[C@H]1CC[C@]2(C)[C@@H]1[C@H](O)C[C@@H]1[C@@]3(C)CC[C@H](O[C@@H]4O[C@H](CO)[C@@H](O)[C@H](O)[C@H]4O[C@@H]4O[C@H](CO)[C@@H](O)[C@H](O)[C@H]4O)C(C)(C)[C@@H]3CC[C@]12C [Rd, ginsenoside Rd]
[1]
  Percentage of C—K in the reaction product: 25%
  Percentage of F2 in the reaction product: 50%
  Percentage of Rd in the reaction product: 15%
  Percentage of Rh2 in the reaction product: 5%
  Percentage of aglycone in the reaction product: 5%
[2]
  Rd converted to ginsenoside F2: 50%
